The compounds below were run on 3T3 L1 fibroblasts (assay: Glucose transport activity assay (14C-2-deoxy-D-glucose uptake)). Settings: Mus musculus, 3T3-L1, read-out: Concentration (μM) to reach >150% activity of vehicle control.
Type: cell-based
Description: Glucose Transport Activity Assay.
Stimulation of the insulin receptor leads to the transport of glucose from the blood into cells, thus modulating blood glucose levels. 3T3 L1 fibroblasts (ATCC) were grown in Dulbecco's modified Eagle's medium (DMEM) with 10% fetal bovine serum (FBS). The cells were plated at a density of 3×10^4 cells/well in 24-well plates. Two days after confluence was reached, the cells were treated for 3 days with 0.5 mM isobutylmethylxanthine (IBMX), 1 μM dexamethasone, and 1.7 μM insulin. The cells were then transferred to DMEM with 10% FBS and supplemented with 1.7μM insulin for 2 more days. The cells were maintained in DMEM with 10% FBS for an additional 4 days. Finally the cells were serum-starved overnight in 0.1% bovine serum albumin (BSA) in DMEM.
The following day, the medium was replaced with 150 mM NaCl, 1.7 mM KCl, 0.9 mM CaCl2, K2HPO4 (pH 7.4) to which were added either the experimental compounds or their vehicle (DMSO). Insulin or its vehicle (0.01% BSA) was diluted in the assay buffer (containing test compound or vehicle, respectively) to final concentration of […]. After incubation for 30 min at 37° C., 5 μCi/ml ^14C-2-deoxy-D-glucose was added, and the incubation was continued for additional 30 min at 37° C. The cells were then washed 3 times with ice-cold PBS/20 mM glucose and lysed in 250 μl of lysis buffer (50 mM HEPES pH 7.6, 1% Triton X-100) for 30 min at room temperature. Radioactivity in the lysate was quantified by scintillation counting.
Once ^14C-2-deoxy-D-glucose is transported into the cell, it is not released. Glucose transport is, therefore, proportional to the amount of radioactivity in the lysate. The concentration of compound necessary to produce an increase in glucose transport to greater than 150% of the vehicle control (generally representing the sum of the standard deviation of the vehicle control plus the largest standard deviation of a test sample) was recorded as the EC (effective concentration). Shown in FIG. 3 is glucose uptake by cells at various concentrations when treated with Compound 13 and Compound 15.
With `CCOP(=O)(O)c1cccc(NS(=O)(=O)c2ccc3ccc(NC(=O)Nc4ccc5ccc(S(=O)(=O)Nc6cccc(P(=O)(O)OCC)c6)cc5c4)cc3c2)c1` [Compound 71, N-[7-({[3-(ethoxy(hydroxyphosphoryl))phenyl]amino}sulfonyl)(2-naphthyl)]{[7-({[3-(ethoxy(hydroxyphosphoryl))phenyl]amino}sulfonyl)(2-naphthyl)]amino}carboxamide] the EC (150% of vehicle control) was 3.2 µM. For `O=C(Nc1ccc2ccc(S(=O)(=O)Nc3cccc([N+](=O)[O-])c3)cc2c1)Nc1ccc2ccc(S(=O)(=O)Nc3cccc([N+](=O)[O-])c3)cc2c1` [Compound 84, N-(7-{[(3-nitrophenyl)amino]sulfonyl}(2-naphthyl))[(7-{[(3-nitrophenyl)amino]sulfonyl}(2-naphthyl))amino]carboxamide], the EC (150% of vehicle control) was 3.2 µM.

Same assay, conditions: Mus musculus; EC (effective concentration) for increase in glucose transport; 14C-2-deoxy-D-glucose, 3T3 L1 cells; read-out: Concentration (μM) to reach >150% activity of vehicle control
`O=C(Nc1ccc2c(O)cc(S(=O)(=O)Nc3cccc(C(=O)O)c3Cl)cc2c1)Nc1ccc2c(O)cc(S(=O)(=O)Nc3cccc(C(=O)O)c3Cl)cc2c1` [Compound 59, 3-{[(7-{[N-(7-{[(3-carboxy-2-chlorophenyl)amino]sulfonyl}-5-hydroxy(2-naphthyl))carbamoyl]amino}-4-hydroxy(2-naphthyl))sulfonyl]amino}-2-chlorobenzoic acid] showed an EC (150% of vehicle control) of 32 µM. With `O=C(Nc1ccc2c(O)cc(S(=O)(=O)Nc3cc(C(=O)O)ccc3Cl)cc2c1)Nc1ccc2c(O)cc(S(=O)(=O)Nc3cc(C(=O)O)ccc3Cl)cc2c1` [Compound 60, 3-{[(7-{[N-(7-{[(3-carboxy-6-chlorophenyl)amino]sulfonyl}-5-hydroxy(2-naphthyl))carbamoyl]amino}-4-hydroxy(2-naphthyl))sulfonyl]amino}-4-chlorobenzoic acid] the EC (150% of vehicle control) was > 32 µM. In the case of `COc1ccc(NS(=O)(=O)c2ccc3ccc(NC(=O)Nc4ccc5ccc(S(=O)(=O)Nc6ccc(OC)c(C(=O)O)c6)cc5c4)cc3c2)cc1C(=O)O` [Compound 62, 5-{[(7-{[N-(7-{[(3-carboxy-4-methoxyphenyl)amino]sulfonyl}(2-naphthyl))carbamoyl]amino}(2-naphthyl))sulfonyl]amino}-2-methoxybenzoic acid], the EC (150% of vehicle control) was 10 µM. Work on `O=C(Nc1ccc2ccc(S(=O)(=O)Nc3cc(C(=O)O)ccc3O)cc2c1)Nc1ccc2ccc(S(=O)(=O)Nc3cc(C(=O)O)ccc3O)cc2c1` [Compound 64, 3-{[(7-{[N-(7-{[(3-carboxy-6-hydroxyphenyl)amino]sulfonyl}(2-naphthyl))carbamoyl]amino}(2-naphthyl))sulfonyl]amino}-4-hydroxybenzoic acid] yielded an EC (150% of vehicle control) of 3.2 µM. With `COC(=O)c1ccc(OC)c(NS(=O)(=O)c2ccc3ccc(NC(=O)Nc4ccc5ccc(S(=O)(=O)Nc6cc(C(=O)OC)ccc6OC)cc5c4)cc3c2)c1` [Compound 65, methyl 4-methoxy-3-({[7-({[7-({[2-methoxy-5-(methoxycarbonyl)phenyl]amino}sulfonyl)(2-naphthyl)]amino}carbonylamino)(2-naphthyl)]sulfonyl}amino)benzoate] the EC (150% of vehicle control) was > 32 µM. Compound `COc1ccc(C(=O)O)cc1NS(=O)(=O)c1ccc2ccc(NC(=O)Nc3ccc4ccc(S(=O)(=O)Nc5cc(C(=O)O)ccc5OC)cc4c3)cc2c1` [Compound 66, 3-{[(7-{[(7-{[(3-carboxy-6-methoxyphenyl)amino]sulfonyl}(2-naphthyl))amino]carbonylamino}(2-naphthyl))sulfonyl]amino}-4-methoxybenzoic acid] has an EC (150% of vehicle control) of 3.2 µM. With `O=C(Nc1ccc2ccc(S(=O)(=O)Nc3cccc(-c4nnn[nH]4)c3)cc2c1)Nc1ccc2ccc(S(=O)(=O)Nc3cccc(-c4nnn[nH]4)c3)cc2c1` [Compound 67, N-(7-{[(3-(1H-1,2,3,4-tetraazol-5-yl)phenyl)amino]sulfonyl}(2-naphthyl))[(7-{[(3-(1H-1,2,3,4-tetraazol-5-yl)phenyl)amino]sulfonyl}(2-naphthyl))amino]carboxamide] the EC (150% of vehicle control) was 3.2 µM. With `O=C(Nc1ccc2c(O)cc(S(=O)(=O)Nc3cccc(-c4nnn[nH]4)c3)cc2c1)Nc1ccc2c(O)cc(S(=O)(=O)Nc3cccc(-c4nnn[nH]4)c3)cc2c1` [Compound 68, N-(5-hydroxy-7-{[(3-(1H-1,2,3,4-tetraazol-5-yl)phenyl)amino]sulfonyl}(2-naphthyl))[(5-hydroxy-7-{[(3-(1H-1,2,3,4-tetraazol-5-yl)phenyl)amino]sulfonyl}(2-naphthyl))amino]carboxamide] the EC (150% of vehicle control) was 3.2 µM. `O=C(Nc1ccc2c(O)cc(S(=O)(=O)Nc3ccc(-c4nnn[nH]4)cc3)cc2c1)Nc1ccc2c(O)cc(S(=O)(=O)Nc3ccc(-c4nnn[nH]4)cc3)cc2c1` [Compound 69, N-(5-hydroxy-7-{[(4-(1H-1,2,3,4-tetraazol-5-yl)phenyl)amino]sulfonyl}(2-naphthyl))[(5-hydroxy-7-{[(4-(1H-1,2,3,4-tetraazol-5-yl)phenyl)amino]sulfonyl}(2-naphthyl))amino]carboxamide] was tested, and the EC (150% of vehicle control) was > 32 µM. `COC(=O)[C@H](Cc1ccc(O)cc1)NS(=O)(=O)c1ccc2ccc(NC(=O)Nc3ccc4ccc(S(=O)(=O)O)cc4c3)cc2c1` [Compound 72, 7-({[7-({[(1S)-2-(4-hydroxyphenyl)-1-(methoxycarbonyl)ethyl]amino}sulfonyl)-2-naphthyl]amino}carbonylamino)naphthalene-2-sulfonic acid] gave an EC (150% of vehicle control) of 3.2 µM. With `O=C(Nc1ccc2ccc(S(=O)(=O)O)cc2c1)Nc1ccc2ccc(S(=O)(=O)N[C@@H](Cc3ccc(O)cc3)C(=O)O)cc2c1` [Compound 73, (2S)-3-(4-hydroxyphenyl)-2-{[(7-{[N-(7-sulfo(2-naphthyl))carbamoyl]amino}(2-naphthyl))sulfonyl]amino}propanoic acid] the EC (150% of vehicle control) was 10 µM. In the case of `COC(=O)[C@H](Cc1ccc(O)cc1)NS(=O)(=O)c1ccc2ccc(NC(=O)Nc3ccc4ccc(S(=O)(=O)N[C@@H](Cc5ccc(O)cc5)C(=O)OC)cc4c3)cc2c1` [Compound 74, methyl (2S)-2-({[7-({N-[7-({[(1S)-2-(4-hydroxyphenyl)-1-(methoxycarbonyl)ethyl]amino}sulfonyl)(2-naphthyl)]carbamoyl}amino)(2-naphthyl)]sulfonyl}amino)-3-(4-hydroxyphenyl)propanoate], the EC (150% of vehicle control) was 3.2 µM. Work on `O=C(Nc1ccc2ccc(S(=O)(=O)N[C@@H](Cc3ccc(O)cc3)C(=O)O)cc2c1)Nc1ccc2ccc(S(=O)(=O)N[C@@H](Cc3ccc(O)cc3)C(=O)O)cc2c1` [Compound 75, (2S)-2-({[7-({N-[7-({[(1S)-1-carboxy-2-(4-hydroxyphenyl)ethyl]amino}sulfonyl)(2-naphthyl)]carbamoyl}amino)(2-naphthyl)]sulfonyl}amino)-3-(4-hydroxyphenyl)propanoic acid] yielded an EC (150% of vehicle control) of 3.2 µM. `O=C(Nc1ccc2ccc(S(=O)(=O)O)cc2c1)Nc1ccc2ccc(S(=O)(=O)Nc3ncccn3)cc2c1` [Compound 78, 7-[({7-[(pyrimidin-2-ylamino)sulfonyl]-2-naphthyl}amino)carbonylamino]naphthalene-2-sulfonic acid] was tested, and the EC (150% of vehicle control) was 10 µM. Compound `O=C(Nc1ccc2ccc(S(=O)(=O)Nc3ncccn3)cc2c1)Nc1ccc2ccc(S(=O)(=O)Nc3ncccn3)cc2c1` [Compound 79, N-{7-[(pyrimidin-2-ylamino)sulfonyl](2-naphthyl)}({7-[(pyrimidin-2-ylamino)sulfonyl](2-naphthyl)}amino)carboxamide] has an EC (150% of vehicle control) of 10 µM. With `O=C(Nc1ccc2ccc(S(=O)(=O)Nc3cnccn3)cc2c1)Nc1ccc2ccc(S(=O)(=O)Nc3cnccn3)cc2c1` [Compound 80, N-{7-[(pyrazin-2-ylamino)sulfonyl](2-naphthyl)}({7-[(pyrazin-2-ylamino)sulfonyl](2-naphthyl)}amino)carboxamide] the EC (150% of vehicle control) was 3.2 µM. With `O=C(Nc1ccc2ccc(S(=O)(=O)Nc3cccc(O)c3)cc2c1)Nc1ccc2ccc(S(=O)(=O)Nc3cccc(O)c3)cc2c1` [Compound 81, N-(7-{[(3-hydroxyphenyl)amino]sulfonyl}(2-naphthyl))[(7-{[(3-hydroxyphenyl)amino]sulfonyl}(2-naphthyl))amino]carboxamide] the EC (150% of vehicle control) was 3.2 µM. `O=C(Nc1ccc2c(O)cc(S(=O)(=O)Nc3cccc(CO)c3)cc2c1)Nc1ccc2c(O)cc(S(=O)(=O)Nc3cccc(CO)c3)cc2c1` [Compound 82, N-[5-hydroxy-7-({[3-(hydroxymethyl)phenyl]amino}sulfonyl)(2-naphthyl)]{[5-hydroxy-7-({[3-(hydroxymethyl)phenyl]amino}sulfonyl)(2-naphthyl)]amino}carboxamide] gave an EC (150% of vehicle control) of 3.2 µM. In the case of `N#Cc1cccc(NS(=O)(=O)c2ccc3ccc(NC(=O)Nc4ccc5ccc(S(=O)(=O)Nc6cccc(C#N)c6)cc5c4)cc3c2)c1` [Compound 83, N-(7-{[(3-cyanophenyl)amino]sulfonyl}(2-naphthyl))[(7-{[(3-cyanophenyl)amino]sulfonyl}(2-naphthyl))amino]carboxamide], the EC (150% of vehicle control) was 3.2 µM.

Reference: patent US7071231B2, “Naphthalene ureas as glucose uptake enhancers” (Telik, Inc., priority 1999, dated 2006)
